Patent US6333338A, “Bispiperidines as antithrombotic agents” (Laboratoire L. Lafon, priority 1998, dated 2001)
Where a name gives a salt, the structure may show the parent alone. Read-outs that look alike come from different tables or passages of the source.

Key:
[1] = tested on: guinea pig platelets; experiment: In vitro inhibition of collagen-induced platelet aggregation, guinea pig platelets (PRP); assay type: cell-based, guinea pig (male Dunkin-Hartley); details: collagen 1 μg/ml, 3 minutes of contact at 37° C.
Protocol: (§1) A study of the inhibitory activity of the compounds of formula I on platelet aggregation was carried out in vitro, i.e. by direct contact of solutions of variable concentrations of the compounds with platelets freshly separated from a sample of total blood, taken under standardized conditions, from laboratory animals (guinea pigs) and from healthy human subjects who have not received any substances or drugs that might interfere with blood clotting. The anti-platelet-aggregating activity was also studied ex vivo/vitro, i.e. after administration of the substances claimed to guinea pigs to measure the intensity and duration of the anti-aggregating action induced by the fraction of the test product absorbed and circulating in the blood.
Blood is taken by intracardiac puncture from male Dunkin-Hartley guinea pigs (weighing about 330 g), at a rate of 4.5 ml per 0.5 ml of trisodium citrate (concentration of the aqueous solution: 1.55%) in order to prevent all trace of clotting. The platelet-rich plasma (PRP) is obtained by centrifuging the tubes of total blood for 15 minutes at 150 g.
The PRPs are collected as "pools". The platelets contained in these pools are counted using a Coulter ZM haematology automatic device: if necessary, a dilution is carried out in order for the platelet concentration in the plasma to be between 200,000 and 400,000 platelets/mm^3. Simultaneously, other samples of these pools serve to prepare the platelet-poor plasma (PPP) by centrifugation at 1500 g for 15 minutes.
The kinetic study of the platelet aggregation is carried out by adding a collagen solution (1 μg/ml) to a volume of PRP, using a Chrono-log Corporation aggregometer (490-D1 or 560 VS) which uses an optical detection of the appearance of the thrombus.
The measurements of the aggregation inhibition are carried out after 3 minutes of contact at 37° C. with agitation.

[2] = tested on: guinea pig platelets; experiment: Ex vivo/vitro inhibition of platelet aggregation after administration via the gastric route in guinea pigs; parameters: species or system guinea pig (Dunkin-Hartley); details: fasted guinea pigs; for inhibition at 150 mg/kg / inhibition at 10 mg/kg: Cavia porcellus, Platelet
Protocol: as §1, with “blood. Evaluation of the anti-platelet-aggregating activity of the compounds is carried out in the same guinea pigs as those mentioned above (Dunkin-Hartley strain). […] The allocation of the treatments to the animals is random. The blood is taken and then treated under the same conditions as those described above for the in vitro studies. The results of the inhibition of the platelet aggregation obtained for each test concentration make it possible to calculate the IC50 concentration of each test product and the kinetics of the inhibitory effect and its duration of action.” for “blood.”

[3] = Cavia porcellus, Platelet, 0.05 h
[4] = 1 h before blood sampling, read-out: % of g.r. inhibition guinea pig ex vivo, d = 150 mg/kg, 1 h
[5] = 2 h before blood sampling, read-out: % of g.r. inhibition guinea pig ex vivo, d = 150 mg/kg, 2 h
[6] = 10 mg/kg, 1 h before blood sampling, read-out: % of g.r. inhibition guinea pig ex vivo, d = 10 mg/kg, 1 h
[7] = 10 mg/kg, 2 h before blood sampling, read-out: % of g.r. inhibition guinea pig ex vivo, d = 10 mg/kg, 2 h

Compound | IC50 [1, 3] [nM] | inhibition at 150 mg/kg [2, 4] [%] | inhibition at 150 mg/kg [2, 5] [%] | inhibition at 10 mg/kg [2, 6] [%] | inhibition at 10 mg/kg [2, 7] [%] | IC50 [1] [nM] | % of g.r. inhibition guinea pig ex vivo, d = 10 mg/kg, 1 h ([2]; 10 mg/kg, 1 h before blood sampling) [%] | % of g.r. inhibition guinea pig ex vivo, d = 10 mg/kg, 2 h ([2]; 10 mg/kg, 2 h before blood sampling) [%]
COc1ccc(C(CC(=O)O)NC(=O)CNC(=O)C(CCC2CCNCC2)CCC2CCNCC2)cc1 (stereo not drawn) [Example 7, 3-(4-Methoxyphenyl)-3-{[2-({4-(4-piperidyl)-2-[2-(4-piperidyl)ethyl]butanoyl}amino)acetyl]amino}propanoic Acid Dihydrochloride] | 10000 | -39 | 0 |  |  |  |  | 
O=C(O)COc1cccc(C(CC(=O)O)NC(=O)CNC(=O)C(CCC2CCNCC2)CCC2CCNCC2)c1 (stereo not drawn) [Example 9, 3-[(3-Carboxymethoxy)phenyl]-3-{[2-({4-(4-piperidyl)-2-[2-(4-piperidyl)ethyl]butanoyl}amino)acetyl]amino}-propanoic Acid Dihydrochloride] | 5000 | -53 | -5 |  |  |  |  | 
O=C(CNC(=O)C(CCC1CCNCC1)CCC1CCNCC1)NCC(NC(=O)c1ccc2c(c1)OCO2)C(=O)O (stereo not drawn) [Example 25, 2-[(1,3-Benzodioxol-5-ylcarbonyl)amino]-3-{[2-({4-(4-piperidyl)-2-[2-(4-piperidyl)ethyl]butanoyl}amino)acetyl]amino}propanoic Acid Dihydrochloride] | 29000 | -33 | -48 |  |  |  |  | 
CS(=O)(=O)c1ccc(S(=O)(=O)NC(CNC(=O)CNC(=O)C(CCC2CCNCC2)CCC2CCNCC2)C(=O)O)cc1 (stereo not drawn) [Example 32, 2-({[4-(Methylsulphonyl)phenyl]sulphonyl}amino)-3-{[2-({4-(4-piperidyl)-2-[2-(4-piperidyl)ethyl]butanoyl}amino)acetyl]amino}propanoic Acid Dihydrochloride] | 12000 |  |  | -8 | -8 |  |  | 
Cc1ccc(S(=O)(=O)NC(CNC(=O)CNC(=O)C(CCC2CCNCC2)CCC2CCNCC2)C(=O)O)cc1 (stereo not drawn) [Example 39, 2-{[(4-Methylphenyl)sulphonyl]amino}-3-{[2-({4-(4-piperidyl)-2-[2-(4-piperidyl)ethyl]butanoyl}amino)acetyl]amino}propanoic Acid Dihydrochloride] | 250 |  |  | -32 | -10 |  |  | 
Cc1cccc(S(=O)(=O)NC(CNC(=O)CNC(=O)C(CCC2CCNCC2)CCC2CCNCC2)C(=O)O)c1 (stereo not drawn) [Example 40, 2-{[(3-Methylphenyl)sulphonyl]amino}-3-{[2-({4-(4-piperidyl)-2-[2-(4-piperidyl)ethyl]butanoyl}amino)acetyl]amino}propanoic Acid Dihydrochloride] | 400 |  |  | -32 | -10 |  |  | 
O=C(CNC(=O)C(CCC1CCNCC1)CCC1CCNCC1)NCC(NS(=O)(=O)Cc1ccccc1)C(=O)O (stereo not drawn) [Example 41, 2-[(Benzylsulphonyl)amino]-3-{[2-({4-(4-piperidyl)-2-[2-(4-piperidyl)ethyl]butanoyl}amino)acetyl]amino}propanoic Acid Dihydrochloride] | 8600 |  |  | 13 | 1 |  |  | 
O=C(CNC(=O)C(CCC1CCNCC1)CCC1CCNCC1)NCC(NS(=O)(=O)/C=C/c1ccccc1)C(=O)O (stereo not drawn) [Example 42, 2-({[(E)-2-Phenylethenyl]sulphonyl}amino)-3-{[2-({4-(4-piperidyl)-2-[2-(4-piperidyl)ethyl]butanoyl}amino)acetyl]amino}propanoic Acid Dihydrochloride] | 420 |  |  | -14 | -26 |  |  | 
Cl.Cl.O=C(CNC(=O)C(CCC1CCNCC1)CCC1CCNCC1)NCC(NS(=O)(=O)CCc1ccccc1)C(=O)O (stereo not drawn) [Example 43, 2-[(2-Phenethylsulphonyl)amino]-3-{[2-({4-(4-piperidyl)-2-[2-(4-piperidyl)ethyl]butanoyl}amino)acetyl]amino}propanoic Acid Dihydrochloride] |  |  |  |  |  | 1200 | -15 | -4
O=C(CNC(=O)C(CCC1CCNCC1)CCC1CCNCC1)NCC(NS(=O)(=O)c1cccc(C(F)(F)F)c1)C(=O)O (stereo not drawn) [Example 44, 2-({[3-(Trifluoromethyl)phenyl]sulphonyl}amino)-3-{[2-({4-(4-piperidyl)-2-[2-(4-piperidyl)ethyl]butanoyl}amino)acetyl]amino}propanoic Acid Dihydrochloride] | 510 |  |  | -22 | -35 |  |  | 
O=C(CNC(=O)C(CCC1CCNCC1)CCC1CCNCC1)NCC(NS(=O)(=O)c1cccc([N+](=O)[O-])c1)C(=O)O (stereo not drawn) [Example 45, 2-{[(3-Nitrophenyl)sulphonyl]amino}-3-{[2-({4-(4-piperidyl)-2-[2-(4-piperidyl)ethyl]butanoyl}amino)acetyl]amino}propanoic Acid Dihydrochloride] | 500 |  |  | -36 | -51 |  |  | 
COc1ccc(S(=O)(=O)NC(CNC(=O)CNC(=O)C(CCC2CCNCC2)CCC2CCNCC2)C(=O)O)cc1 (stereo not drawn) [Example 46, 2-{[(4-Methoxyphenyl)sulphonyl]amino}-3-{[2-({4-(4-piperidyl)-2-[2-(4-piperidyl)ethyl]butanoyl}amino)acetyl]amino}propanoic Acid Dihydrochloride] | 380 |  |  | -18 | -31 |  |  | 
O=C(CNC(=O)C(CCC1CCNCC1)CCC1CCNCC1)NCC(NS(=O)(=O)c1cccc2cccnc12)C(=O)O (stereo not drawn) [Example 47, 2-[(8-Quinolinylsulphonyl)amino]-3-{[2-({4-(4-piperidyl)-2-[2-(4-piperidyl)ethyl]butanoyl}amino)acetyl]amino}propanoic Acid Trihydrochloride] | 1900 |  |  | -4 | -17 |  |  | 
Cc1noc(C)c1S(=O)(=O)NC(CNC(=O)CNC(=O)C(CCC1CCNCC1)CCC1CCNCC1)C(=O)O (stereo not drawn) [Example 48, 2-{[(3,5-Dimethyl-4-isoxazolyl)sulphonyl]amino}-3-{[2-({4-(4-piperidyl)-2-[2-(4-piperidyl)ethyl]butanoyl}amino)acetyl]amino}propanoic Acid Dihydrochloride] | 420 |  |  | -61 | -15 |  |  | 
CC(=O)Nc1nc(C)c(S(=O)(=O)NC(CNC(=O)CNC(=O)C(CCC2CCNCC2)CCC2CCNCC2)C(=O)O)s1 (stereo not drawn) [Example 50, 2-({[2-(Acetylamino)-4-methyl-1,3-thiazol-5-yl]sulphonyl}amino)-3-{[2-({4-(4-piperidyl)-2-[2-(4-piperidyl)ethyl]butanoyl}amino)acetyl]amino}propanoic Acid Dihydrochloride] | 3300 |  |  | -22 | -39 |  |  | 
O=C(CNC(=O)C(CCC1CCNCC1)CCC1CCNCC1)NC[C@H](NS(=O)(=O)CCCCl)C(=O)O [Example 51, 2-{[(3-Chloropropyl)sulphonyl]amino}-3-{[2-({4-(4-piperidyl)-2-[2-(4-piperidyl)ethyl]butanoyl}amino)acetyl]amino}propanoic Acid Dihydrochloride] | 11000 |  |  | 4 | -21 |  |  | 
Cc1nc(C)c(S(=O)(=O)NC(CNC(=O)CNC(=O)C(CCC2CCNCC2)CCC2CCNCC2)C(=O)O)s1 (stereo not drawn) [Example 54, 2-{[(2,4-Dimethyl-1,3-thiazol-5-yl)sulphonyl]amino}-3-{[2-({4-(4-piperidyl)-2-[2-(4-piperidyl)ethyl]butanoyl}amino)acetyl]amino}propanoic Acid Dihydrochloride] | 1300 |  |  | -40 | -15 |  |  | 
